We go through four sequences from article PMC3392449 (Journal of Immunology (Baltimore, Md. : 1950), 2012).

What all share (type): cell-based, human
The test system of assay [1] is extract-stimulated PBMC cultures from allergic donors. Description: IL-5 plus IFN-γ ELISPOT of Bla g extract-expanded PBMC. The conditions noted are these: share of the region in the total Bla g peptide response (total SFC).
In assay [2] the test system is extract-stimulated PBMC cultures from allergic donors (IL-5 production). Description: IL-5 ELISPOT of in vitro expanded PBMC. Conditions: donor U00023 (Figure 3), result in words.
For assay [3], the system named is extract-stimulated PBMC cultures from allergic donors (IFN-γ production). Description: IFN-γ ELISPOT of in vitro expanded PBMC. The conditions noted are these: donor U00023 (Figure 3), result in words.

Turning to FAVATITHAAELQRV [Region 5], in assay [1], the “% Total response” value was found to be 3.5%. For the same sequence, the IL-5 response entry in assay [2] is reported as “no IL-5”. In assay [3], the IFN-γ response entry is “produced IFN-γ”.

With GNQNFLTVFDSTSCN [Region 7], the “% Total response” value in assay [1] was 0.2%. Besides, the IL-5 response result in assay [2] is “no IL-5”. Also, the IFN-γ response entry in assay [3] was “produced IFN-γ”.

On to ISDFRAAIANYHYDA [Region 13], for which the “% Total response” value in assay [1] came to 8.6%.

PEQIQLLKKAFDAFD [Region 23]: in assay [1], the “% Total response” value came out at 5.1%. The IL-5 response result in assay [2] is recorded as “associated only with IL-5 production”.
